Data taken from PMC4014323, “Structure of tyrosine aminotransferase from Leishmania infantum” (Acta Crystallographica. Section F, Structural Biology …, 2014).

Experiments:
[1] = molecular target: T1, LiTAT_truncated (Leishmania infantum, UniProt A4IDL0); assay: Diamondstone p-hydroxybenzaldehyde assay; assay type: biochemical
T1 construct: gene TAT; E. coli BL21(DE3) pLysS; homodimer; model Ser40-Lys448
T1 sequence (A4IDL0 39-448): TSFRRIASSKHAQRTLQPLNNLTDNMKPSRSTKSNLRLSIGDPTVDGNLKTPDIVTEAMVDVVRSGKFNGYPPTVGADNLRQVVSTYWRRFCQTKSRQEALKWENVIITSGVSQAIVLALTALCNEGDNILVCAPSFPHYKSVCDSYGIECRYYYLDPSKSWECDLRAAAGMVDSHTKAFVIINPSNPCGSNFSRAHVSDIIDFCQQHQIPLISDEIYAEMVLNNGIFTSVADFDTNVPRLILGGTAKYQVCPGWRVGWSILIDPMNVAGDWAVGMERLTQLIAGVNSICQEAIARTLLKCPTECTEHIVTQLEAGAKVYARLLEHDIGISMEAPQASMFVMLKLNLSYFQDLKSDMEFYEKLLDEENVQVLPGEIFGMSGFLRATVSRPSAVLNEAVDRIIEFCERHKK

[2] = molecular target: T1, LiTAT_truncated; assay: X-ray crystallography, […] A; assay type: binding; conditions: covalent, internal aldimine at Lys286; crystals at pH 8.5
[3] = molecular target: the molecule itself; assay: SEC; HiLoad 26/60 Superdex 75 prep grade, room temperature, 20 mM HEPES pH 7.0, 300 mM NaCl, 5% glycerol, 1 mM TCEP; molecular weight estimated from a calibration curve (Low Molecular Weight Kit)

CC(=O)C(=O)O [pyruvate]
Diamondstone p-hydroxybenzaldehyde assay ([1]; amino acceptor, co-substrate tyrosine): it can transaminate pyruvate with high efficiency

Cc1ncc(COP(=O)(O)O)c(C=O)c1O [PLP]
X-ray crystallography, 2.35 A [2]: In both subunits of LiTAT, PLP is covalently bound to Lys286

N[C@@H](Cc1ccc(O)cc1)C(=O)O [tyrosine]
Diamondstone p-hydroxybenzaldehyde assay ([1]; amino donor, co-substrate pyruvate): using tyrosine as the amino donor

B1: Leishmania infantum tyrosine aminotransferase, full length (enzyme, UniProt A4IDL0 1-448, looked up)
chain: MTIDTQAAPAAQTLKAGNSTGSLTEERREVEQQRAAENTSFRRIASSKHAQRTLQPLNNLTDNMKPSRSTKSNLRLSIGDPTVDGNLKTPDIVTEAMVDVVRSGKFNGYPPTVGADNLRQVVSTYWRRFCQTKSRQEALKWENVIITSGVSQAIVLALTALCNEGDNILVCAPSFPHYKSVCDSYGIECRYYYLDPSKSWECDLRAAAGMVDSHTKAFVIINPSNPCGSNFSRAHVSDIIDFCQQHQIPLISDEIYAEMVLNNGIFTSVADFDTNVPRLILGGTAKYQVCPGWRVGWSILIDPMNVAGDWAVGMERLTQLIAGVNSICQEAIARTLLKCPTECTEHIVTQLEAGAKVYARLLEHDIGISMEAPQASMFVMLKLNLSYFQDLKSDMEFYEKLLDEENVQVLPGEIFGMSGFLRATVSRPSAVLNEAVDRIIEFCERHKK
notes: Tyrosine aminotransferase of Leishmania infantum (MHOM/ES/98/10445), full-length gene LinJ.36.2490 encoding 448 amino acids; Cloned BamHI/HindIII into pRSET-A; PLP (4 uM) was in the lysis and IMAC buffers; also called LiTAT; TAT; source: E. coli BL21 (DE3) pLysS, purified (HisTrap FF, Superdex 75 SEC); not shown: His tag (from the vector pRSET-A)
stoichiometry N [3]: 2

B2: Leishmania infantum tyrosine aminotransferase, truncated (lacking the first 114 nucleotides of the annotated sequence) (domain or fragment, UniProt A4IDL0 39-448, looked up)
chain: T1 sequence (A4IDL0 39-448)
modifications: PLP covalently bound to Lys286
notes: residues Ser40-Lys448 built in chain A of the crystal structure; they are worked out from the deletion of the first 114 nucleotides of a protein of 448 amino acids; source: E. coli BL21 (DE3) pLysS, purified (HisTrap FF, Superdex 75 SEC); not shown: His tag (from the vector pRSET-A)
stoichiometry N [3]: 2
